# Test results as given in patent publication US20250122218A1, “MODULATORS OF CYSTIC FIBROSIS TRANSMEMBRANE CONDUCTANCE REGULATOR” (Vertex Pharmaceuticals Incorporated, priority 2022, published 2025).
# Target: T1, CFTR in F508del/MF-HBE cells (Homo sapiens, UniProt P13569, DEL508-508)
# T1 construct: human bronchial epithelial (HBE) cells derived from CF subjects heterozygous for F508del and a minimal function CFTR mutation; endogenous in cells; host or cells: primary human bronchial epithelial cells from CF subjects (F508del/MF-HBE)
# T1 sequence (P13569 with tags, fused parts or gaps DEL508-508): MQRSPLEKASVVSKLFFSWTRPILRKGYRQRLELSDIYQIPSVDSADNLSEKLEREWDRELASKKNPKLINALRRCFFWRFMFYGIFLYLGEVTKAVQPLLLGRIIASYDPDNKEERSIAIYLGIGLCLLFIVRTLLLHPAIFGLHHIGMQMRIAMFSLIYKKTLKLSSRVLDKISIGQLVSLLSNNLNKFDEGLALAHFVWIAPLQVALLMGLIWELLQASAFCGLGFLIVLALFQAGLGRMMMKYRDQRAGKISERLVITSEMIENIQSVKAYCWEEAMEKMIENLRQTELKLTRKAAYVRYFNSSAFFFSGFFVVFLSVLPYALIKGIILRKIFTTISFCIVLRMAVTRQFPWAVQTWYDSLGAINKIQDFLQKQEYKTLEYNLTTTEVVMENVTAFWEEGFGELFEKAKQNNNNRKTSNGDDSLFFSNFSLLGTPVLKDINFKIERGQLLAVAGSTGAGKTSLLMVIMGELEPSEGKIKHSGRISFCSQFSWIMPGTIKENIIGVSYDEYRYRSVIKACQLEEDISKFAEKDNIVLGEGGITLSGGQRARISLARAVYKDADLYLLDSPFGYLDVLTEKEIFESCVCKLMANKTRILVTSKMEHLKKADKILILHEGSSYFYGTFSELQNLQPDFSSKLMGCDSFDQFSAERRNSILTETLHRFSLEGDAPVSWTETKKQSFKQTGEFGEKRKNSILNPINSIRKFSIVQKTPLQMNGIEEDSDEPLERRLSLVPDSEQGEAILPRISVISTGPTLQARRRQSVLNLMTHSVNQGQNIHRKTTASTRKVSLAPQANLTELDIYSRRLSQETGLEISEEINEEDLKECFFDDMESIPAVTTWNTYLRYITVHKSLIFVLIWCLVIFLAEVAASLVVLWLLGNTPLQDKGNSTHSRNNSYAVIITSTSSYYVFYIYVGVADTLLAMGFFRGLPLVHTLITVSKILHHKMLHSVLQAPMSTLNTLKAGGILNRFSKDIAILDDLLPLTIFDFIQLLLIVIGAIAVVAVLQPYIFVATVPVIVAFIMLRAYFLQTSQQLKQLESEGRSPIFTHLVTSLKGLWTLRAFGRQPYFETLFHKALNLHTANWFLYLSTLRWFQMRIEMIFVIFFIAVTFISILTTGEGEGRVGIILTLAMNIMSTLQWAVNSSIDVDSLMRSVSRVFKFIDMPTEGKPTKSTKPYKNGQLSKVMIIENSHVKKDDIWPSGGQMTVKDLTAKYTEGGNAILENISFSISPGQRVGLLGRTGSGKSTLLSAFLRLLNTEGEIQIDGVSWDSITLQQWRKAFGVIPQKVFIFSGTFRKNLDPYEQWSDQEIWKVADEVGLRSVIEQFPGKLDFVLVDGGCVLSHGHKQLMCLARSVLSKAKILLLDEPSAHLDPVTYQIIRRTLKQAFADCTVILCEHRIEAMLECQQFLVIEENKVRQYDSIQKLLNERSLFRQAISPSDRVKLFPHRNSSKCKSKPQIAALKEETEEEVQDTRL
# Assay: Ussing chamber assay of CFTR-mediated short-circuit currents (identification of potentiator compounds)
# Format: cell-based
# Conditions: potentiator incubated 18-24 hours at 37° C. in combination with 10 μM corrector, in the presence of 20% human serum, CFTR-mediated ISC
# Summary of the method: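 Short-circuit current was measured in Ussing chambers at 37° C, Vhold 0 mV, 30 μM apical amiloride. CFTR current was defined as the forskolin (20 μM) response relative to the current remaining after BPO/GlyH-101/inhibitor 172 (20 μM each). Before recording, cells had 18-24 h exposure to test potentiators with 10 μM corrector compound in 20% human serum.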
row,SMILES,EC50 [nM]
1,"CC(C)(C)C1(N2CCCCC[C@](O)(C(F)(F)F)C3=NN=C(O3)c3nc(c(C(F)(F)F)cc3N)C2=O)CC1 [Compound 226, (6R)-17-amino-12-(1-tert-butylcyclopropyl)-6-hydroxy-6,15-bis(trifluoromethyl)-19-oxa-3,4,12,18-tetrazatricyclo [12.3.1.12,5] nonadeca-1(18),2,4,14,16-pentaen-13-one]",< 500
2,"Nc1cc(C(F)(F)F)c2nc1-c1nnc(o1)[C@@](O)(C(F)(F)F)CCCCCN(Cc1cccc(C3CCC3)c1)C2=O [Compound 229, (6R)-17-amino-12-[(3-cyclobutylphenyl)methyl]-6-hydroxy-6,15-bis(trifluoromethyl)-19-oxa-3,4,12,18-tetrazatricyclo [12.3.1.12,5] nonadeca-1(18),2,4,14,16-pentaen-13-one]",< 500
3,"Nc1cc(C(F)(F)F)c2nc1-c1nnc(o1)[C@@](O)(C(F)(F)F)CCCCCN(Cc1cccc(C3CC3)c1)C2=O [Compound 231, (6R)-17-amino-12-[(3-cyclopropylphenyl)methyl]-6-hydroxy-6,15-bis(trifluoromethyl)-19-oxa-3,4,12,18-tetrazatricyclo [12.3.1.12,5] nonadeca-1(18),2,4,14,16-pentaen-13-one]",< 500
4,Nc1cc(C(F)(F)F)c2nc1-c1nnc(o1)[C@@](O)(C(F)(F)F)CCCCCN(Cc1cccc(C34CC(C3)C4)c1)C2=O [Compound 240],< 500
5,"Nc1cc(C(F)(F)F)c2nc1-c1nnc(o1)[C@@](O)(C(F)(F)F)CCCCCN(CC1CCC(F)(F)CC1)C2=O [Compound 242, (6R)-17-amino-12-[(4,4-difluorocyclohexyl)methyl]-6-hydroxy-6,15-bis(trifluoromethyl)-19-oxa-3,4,12,18-tetrazatricyclo [12.3.1.12,5] nonadeca-1(18),2,4,14,16-pentaen-13-one]",< 500
6,"Nc1cc(C(F)(F)F)c2nc1-c1nnc(o1)[C@@](O)(C(F)(F)F)CCCCCN(CC1CC(F)(F)C1)C2=O [Compound 243, (6R)-17-amino-12-[(3,3-difluorocyclobutyl)methyl]-6-hydroxy-6,15-bis(trifluoromethyl)-19-oxa-3,4,12,18-tetrazatricyclo [12.3.1.12,5] nonadeca-1(18),2,4,14,16-pentaen-13-one]",< 500
7,"CC(C)(O)c1cccc(CN2CCCCC[C@](O)(C(F)(F)F)C3=NN=C(O3)c3nc(c(C(F)(F)F)cc3N)C2=O)c1 [Compound 244, (6R)-17-amino-6-hydroxy-12-[[3-(1-hydroxy-1-methyl-ethyl)phenyl]methyl]-6,15-bis(trifluoromethyl)-19-oxa-3,4,12,18-tetrazatricyclo [12.3.1.12,5] nonadeca-1(18),2,4,14,16-pentaen-13-one]",< 500
8,"Nc1cc(C(F)(F)F)c2nc1-c1nnc(o1)[C@@](O)(C(F)(F)F)CCCCCN(CC1C3(CC3)C13CC3)C2=O [Compound 245, (6R)-17-amino-12-(dispiro[2.0.24.13]heptan-7-ylmethyl)-6-hydroxy-6,15-bis(trifluoromethyl)-19-oxa-3,4,12,18-tetrazatricyclo [12.3.1.12,5] nonadeca-1(18),2,4,14,16-pentaen-13-one]",< 500
9,"Nc1cc(C(F)(F)F)c2nc1-c1nnc(o1)[C@@](O)(C(F)(F)F)CCCCCN(Cc1cc(F)cc(C3CC3)c1)C2=O [Compound 247, (6R)-17-amino-12-[(3-cyclopropyl-5-fluoro-phenyl)methyl]-6-hydroxy-6,15-bis(trifluoromethyl)-19-oxa-3,4,12,18-tetrazatricyclo [12.3.1.12,5] nonadeca-1(18),2,4,14,16-pentaen-13-one]",< 500
10,"Nc1cc(C(F)(F)F)c2nc1-c1nnc(o1)[C@@](O)(C(F)(F)F)CCCCCN(CC(C1CC1)C1CC1)C2=O [Compound 251, (6R)-17-amino-12-(2,2-dicyclopropylethyl)-6-hydroxy-6,15-bis(trifluoromethyl)-19-oxa-3,4,12,18-tetrazatricyclo [12.3.1.12,5] nonadeca-1(18),2,4,14,16-pentaen-13-one]",> 1000
11,"Nc1cc(C(F)(F)F)c2nc1-c1nnc(o1)[C@@](O)(C(F)(F)F)CCCCCN(CC1CC13CC3)C2=O (stereo partly drawn) [Compound 252, (6R)-17-amino-6-hydroxy-12-(spiro[2.2]pentan-2-ylmethyl)-6,15-bis(trifluoromethyl)-19-oxa-3,4,12,18-tetrazatricyclo [12.3.1.12,5] nonadeca-1(18),2,4,14,16-pentaen-13-one]",< 500
12,"Nc1cc(C(F)(F)F)c2nc1-c1nnc(o1)[C@@](O)(C(F)(F)F)CCCCCN(Cc1ccc(F)c(C3CCC3)c1)C2=O [Compound 256, (6R)-17-amino-12-[(3-cyclobutyl-4-fluoro-phenyl)methyl]-6-hydroxy-6,15-bis(trifluoromethyl)-19-oxa-3,4,12,18-tetrazatricyclo [12.3.1.12,5] nonadeca-1(18),2,4,14,16-pentaen-13-one]",< 500
13,"Nc1cc(C(F)(F)F)c2nc1-c1nnc(o1)[C@@](O)(C(F)(F)F)CCCCCN(Cc1cc(F)cc(Cl)c1)C2=O [Compound 257, (6R)-17-amino-12-[(3-chloro-5-fluoro-phenyl)methyl]-6-hydroxy-6,15-bis(trifluoromethyl)-19-oxa-3,4,12,18-tetrazatricyclo [12.3.1.12,5] nonadeca-1(18),2,4,14,16-pentaen-13-one]",< 500
14,"Nc1cc(C(F)(F)F)c2nc1-c1nnc(o1)[C@@](O)(C(F)(F)F)CCCCCN(Cc1cc(F)cc(C(F)(F)F)c1)C2=O [Compound 258, (6R)-17-amino-12-[[3-fluoro-5-(trifluoromethyl)phenyl]methyl]-6-hydroxy-6,15-bis(trifluoromethyl)-19-oxa-3,4,12,18-tetrazatricyclo [12.3.1.12,5] nonadeca-1(18),2,4,14,16-pentaen-13-one]",< 500
15,"Nc1cc(C(F)(F)F)c2nc1-c1nnc(o1)[C@@](O)(C(F)(F)F)CCCCCN(Cc1cc(C3CC3)ccc1F)C2=O [Compound 259, (6R)-17-amino-12-[(5-cyclopropyl-2-fluoro-phenyl)methyl]-6-hydroxy-6,15-bis(trifluoromethyl)-19-oxa-3,4,12,18-tetrazatricyclo [12.3.1.12,5] nonadeca-1(18),2,4,14,16-pentaen-13-one]",< 500

# Now from value to molecule:
row,EC50 [nM],SMILES
1,< 500,"Cc1cc(C)cc(CN2CCCCC[C@](O)(C(F)(F)F)C3=NN=C(O3)c3nc(c(C(F)(F)F)cc3N)C2=O)c1 [Compound 225, (6R)-17-amino-12-[(3,5-dimethylphenyl)methyl]-6-hydroxy-6,15-bis(trifluoromethyl)-19-oxa-3,4,12,18-tetrazatricyclo [12.3.1.12,5] nonadeca-1(18),2,4,14,16-pentaen-13-one]"
2,< 500,"COc1cc(CN2CCCCC[C@](O)(C(F)(F)F)C3=NN=C(O3)c3nc(c(C(F)(F)F)cc3N)C2=O)ccc1C(F)(F)F [Compound 230, (6R)-17-amino-6-hydroxy-12-[[3-methoxy-4-(trifluoromethyl)phenyl]methyl]-6,15-bis(trifluoromethyl)-19-oxa-3,4,12,18-tetrazatricyclo [12.3.1.12,5] nonadeca-1(18),2,4,14,16-pentaen-13-one]"
3,< 500,"Nc1cc(C(F)(F)F)c2nc1-c1nnc(o1)[C@@](O)(C(F)(F)F)CCCCCN(Cc1cccc(C(F)F)c1)C2=O [Compound 241, (6R)-17-amino-12-[[3-(difluoromethyl)phenyl]methyl]-6-hydroxy-6,15-bis(trifluoromethyl)-19-oxa-3,4,12,18-tetrazatricyclo [12.3.1.12,5] nonadeca-1(18),2,4,14,16-pentaen-13-one]"
4,< 500,"Nc1cc(C(F)(F)F)c2nc1-c1nnc(o1)[C@@](O)(C(F)(F)F)CCCCCN(CC1C3CCCCC31)C2=O (stereo partly drawn) [Compound 246, (6R)-17-amino-6-hydroxy-12-(norcaran-7-ylmethyl)-6,15-bis(trifluoromethyl)-19-oxa-3,4,12,18-tetrazatricyclo [12.3.1.12,5] nonadeca-1(18),2,4,14,16-pentaen-13-one]"
5,< 500,"Nc1cc(C(F)(F)F)c2nc1-c1nnc(o1)[C@@](O)(C(F)(F)F)CCCCCN(Cc1cc(F)cc(C3CCC3)c1)C2=O [Compound 248, (6R)-17-amino-12-[(3-cyclobutyl-5-fluoro-phenyl)methyl]-6-hydroxy-6,15-bis(trifluoromethyl)-19-oxa-3,4,12,18-tetrazatricyclo [12.3.1.12,5] nonadeca-1(18),2,4,14,16-pentaen-13-one]"
6,< 500,"Nc1cc(C(F)(F)F)c2nc1-c1nnc(o1)[C@@](O)(C(F)(F)F)CCCCCN(C1(C3CC3)CC1)C2=O [Compound 253, (6R)-17-amino-12-(1-cyclopropylcyclo-propyl)-6-hydroxy-6,15-bis(trifluoromethyl)-19-oxa-3,4,12,18-tetrazatricyclo [12.3.1.12,5] nonadeca-1(18),2,4,14,16-pentaen-13-one]"
7,< 500,"Nc1cc(C(F)(F)F)c2nc1-c1nnc(o1)[C@@](O)(C(F)(F)F)CCCCCN(Cc1cccc(OC(F)F)c1)C2=O [Compound 254, (6R)-17-amino-12-[[3-(difluoromethoxy)phenyl]methyl]-6-hydroxy-6,15-bis(trifluoromethyl)-19-oxa-3,4,12,18-tetrazatricyclo [12.3.1.12,5] nonadeca-1(18),2,4,14,16-pentaen-13-one]"
8,< 500,"Nc1cc(C(F)(F)F)c2nc1-c1nnc(o1)[C@@](O)(C(F)(F)F)CCCCCN(Cc1ccc(F)c(C3CC3)c1)C2=O [Compound 255, (6R)-17-amino-12-[(3-cyclopropyl-4-fluoro-phenyl)methyl]-6-hydroxy-6,15-bis(trifluoromethyl)-19-oxa-3,4,12,18-tetrazatricyclo [12.3.1.12,5] nonadeca-1(18),2,4,14,16-pentaen-13-one]"
